This passage reports inhibition results from EP2272817A1, “PAI-1 INHIBITOR” (Institute of Medicinal Molecular Design, Inc., priority 2008, dated 2009).

The structures appear in SMILES notation. Read-outs that look alike come from different tables or passages of the source.

Experiment [1] has as its target T1, recombinant human PAI-1 (Homo sapiens, UniProt P05121). Kind of experiment: biochemical. Conditions: for inhibition at 25 µM: read-out: Inhibition Rate of PAI-1 Activity (%), Compound Concentration 25µM.
Method: To this solution, 6 µl of 80 nM recombinant human PAI-1 (Molecular Innovations, Inc.) solution prepared with Tris buffer was added, and the plate was incubated for 5 minutes at room temperature. Furthermore, 30 µl of 800 IU/ml two-chain tPA (Activity Standard; American diagnostica, inc.) prepared with Tris buffer was added, and the mixed solution was incubated for 15 minutes at room temperature. Then, 30 µl of 400 µM fluorogenic substrate (Pyr-Gly-Arg-MCA; Peptide Institute, Inc.) for tPA prepared with Tris buffer was added and reacted for 30 minutes at room temperature.
50 mM Tris, 150 mM NaCl, 10 µg/ml BSA, 0.01 % Tween80 (SIGMA-ALDRICH Corporation)
For a further experiment, the target named is T2, recombinant rat PAI-1 (Rattus norvegicus, UniProt P20961).
T2 sequence (P20961 24-402): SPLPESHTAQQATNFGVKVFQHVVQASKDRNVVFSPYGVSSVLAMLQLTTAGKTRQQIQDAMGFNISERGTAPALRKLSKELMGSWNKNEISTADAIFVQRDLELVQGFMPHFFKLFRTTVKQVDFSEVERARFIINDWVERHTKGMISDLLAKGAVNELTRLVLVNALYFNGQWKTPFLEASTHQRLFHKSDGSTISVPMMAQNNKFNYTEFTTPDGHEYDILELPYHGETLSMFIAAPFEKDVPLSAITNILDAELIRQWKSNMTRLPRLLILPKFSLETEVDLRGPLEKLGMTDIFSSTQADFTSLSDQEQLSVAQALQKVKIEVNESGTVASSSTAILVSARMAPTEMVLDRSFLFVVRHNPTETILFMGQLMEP
Briefly: biochemical. Conditions: read-out: Inhibition Rate of PAI-1 Activity (%).

Experiment [2] addresses T1, recombinant human PAI-1. Kind of experiment: Test Example 2: Human PAI-1 Inhibitory Activity (pH 7.4 HEPES buffer, 10 minutes incubation with two-chain tPA). Format: biochemical. Set-up: purchased Molecular Innovations, Inc. The conditions noted are these: read-out: Inhibition Rate of PAI-1 Activity (%). The procedure: 0.1 M HEPES, 0.1 M NaCl. 1 mM EDTA. 0.1 % Polyethylene glycol 8,000 (Hampton Research Corporation),
2 mM Dimethyldecylphoshine oxide [Apo-10] (Fluka Corporation)

[3] abbreviates: read-out: Inhibition Rate of PAI-1 Activity (%), Compound Concentration 5µM.
Where [4] appears, read: read-out: Inhibition Rate of PAI-1 Activity (%), Compound Concentration 10µM.
[5] abbreviates: read-out: Inhibition Rate of PAI-1 Activity (%).

T1 sequence (P05121 24-402): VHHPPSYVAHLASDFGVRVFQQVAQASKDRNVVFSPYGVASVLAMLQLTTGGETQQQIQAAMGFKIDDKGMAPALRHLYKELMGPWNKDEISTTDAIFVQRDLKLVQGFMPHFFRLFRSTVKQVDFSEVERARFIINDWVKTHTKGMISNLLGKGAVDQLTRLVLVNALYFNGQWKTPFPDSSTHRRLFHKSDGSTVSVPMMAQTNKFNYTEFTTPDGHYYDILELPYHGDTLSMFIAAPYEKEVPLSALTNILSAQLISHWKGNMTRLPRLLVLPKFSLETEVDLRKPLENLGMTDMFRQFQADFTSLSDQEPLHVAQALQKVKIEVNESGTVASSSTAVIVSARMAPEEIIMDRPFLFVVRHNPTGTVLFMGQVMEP

For `CC(C)(C)c1ccc(COc2ccc(Oc3ccc(OC(F)(F)F)cc3)cc2CCC(=O)O)cc1` [Compound 96], the inhibition at 5 µM on recombinant human PAI-1 [1] (setting [3]) came to 36%. Also, the inhibition at 10 µM at recombinant human PAI-1 [1] (setting [4]) came to 75%. Also, at recombinant human PAI-1 [1], the inhibition at 25 µM was found to be 99%. For the same compound, on recombinant rat PAI-1, the inhibition at 0.3 µM is 3%, the inhibition at 1 µM was determined as 14%, the inhibition at 3 µM was 49% and the inhibition at 10 µM was found to be 96%. Also, on recombinant human PAI-1 [2], the inhibition at 0.1 µM came out at 6%, the inhibition at 0.3 µM came to 7%, the inhibition at 1 µM came to 26% and the inhibition at 3 µM is 96%.
Take `CC(C)c1ccc(Oc2ccc(CCC(=O)O)c(Oc3ccc(C(C)C)cc3)c2)cc1` [Compound 73]: the inhibition at 5 µM on recombinant human PAI-1 [1] (setting [3]) came to 30%. For the same compound, at recombinant human PAI-1 [1] (setting [4]), the inhibition at 10 µM is 66%. Further, the inhibition at 25 µM on recombinant human PAI-1 [1] was over 99%. Besides, on recombinant rat PAI-1, the inhibition at 0.3 µM was found to be 0%, the inhibition at 1 µM was 13%, the inhibition at 3 µM came to 75% and the inhibition at 10 µM worked out at 98%. For the same compound, at recombinant human PAI-1 [2], the inhibition at 0.1 µM amounted to 0%, the inhibition at 0.3 µM is 6%, the inhibition at 1 µM stood at 27% and the inhibition at 3 µM is 98%.
For `Cc1cc(N(C)C)c(-c2ccc(OC(F)(F)F)cc2)cc1N(Cc1ccc(C(C)(C)C)cc1)C(=O)C(=O)O` [Compound 215], at recombinant human PAI-1 [1] (setting [5]), the inhibition at 5 µM was 90% and the inhibition at 10 µM stood at 92%. Further, at recombinant rat PAI-1, the inhibition at 0.3 µM was found to be 2%, the inhibition at 1 µM is 16%, the inhibition at 3 µM was found to be 84% and the inhibition at 10 µM is 97%. Moreover, at recombinant human PAI-1 [2], the inhibition at 0.1 µM stood at 7%, the inhibition at 0.3 µM stood at 18%, the inhibition at 1 µM is 54% and the inhibition at 3 µM is 95%.
As for `CC(C)(C)c1ccc(COc2c(OCC(=O)O)cccc2-c2ccc(OC(F)(F)F)cc2)cc1` [Compound 117], at recombinant human PAI-1 [1] (setting [3]), the inhibition at 5 µM stood at 63%. In addition, the inhibition at 10 µM at recombinant human PAI-1 [1] (setting [4]) was determined as 91%. Besides, at recombinant human PAI-1 [1], the inhibition at 25 µM was determined as 96%. Further, at recombinant rat PAI-1, the inhibition at 0.3 µM worked out at 0%, the inhibition at 1 µM was 7%, the inhibition at 3 µM was determined as 63% and the inhibition at 10 µM was 94%. On recombinant human PAI-1 [2], the inhibition at 0.1 µM turned out to be 2%, the inhibition at 0.3 µM was found to be 7%, the inhibition at 1 µM was found to be 46% and the inhibition at 3 µM is over 99%.
On to `CCCCOc1ccc(N(Cc2ccc(C(C)(C)C)cc2)C(=O)C(=O)O)cc1-c1ccc(OC(F)(F)F)cc1` [Compound 193], for which the inhibition at 5 µM on recombinant human PAI-1 [1] (setting [3]) amounted to 81%. The inhibition at 10 µM at recombinant human PAI-1 [1] (setting [4]) was found to be 89%. Besides, on recombinant rat PAI-1, the inhibition at 0.3 µM turned out to be 2%, the inhibition at 1 µM was 26%, the inhibition at 3 µM stood at 81% and the inhibition at 10 µM stood at 70%. On recombinant human PAI-1 [2], the inhibition at 0.1 µM came out at 2%, the inhibition at 0.3 µM was 5%, the inhibition at 1 µM is 34% and the inhibition at 3 µM is over 99%.
As for `CN(C)c1ccc(N(Cc2ccc(C(C)(C)C)cc2)C(=O)C(=O)O)cc1-c1ccc(OC(F)(F)F)cc1` [Compound 214], at recombinant human PAI-1 [1] (setting [5]), the inhibition at 5 µM was determined as 87% and the inhibition at 10 µM was determined as 93%. On recombinant rat PAI-1, the inhibition at 0.3 µM stood at 0%, the inhibition at 1 µM turned out to be 8%, the inhibition at 3 µM came to 77% and the inhibition at 10 µM stood at 97%. At recombinant human PAI-1 [2], the inhibition at 0.1 µM is 4%, the inhibition at 0.3 µM worked out at 2%, the inhibition at 1 µM was found to be 40% and the inhibition at 3 µM was determined as 96%.
For the compound `CCCOc1ccc(-c2ccc(OC(F)(F)F)cc2)cc1N(Cc1ccc(C(C)(C)C)cc1)C(=O)C(=O)O` [Compound 188], at recombinant human PAI-1 [1] (setting [3]), the inhibition at 5 µM was determined as 73%. In addition, the inhibition at 10 µM at recombinant human PAI-1 [1] (setting [4]) was found to be 91%. Besides, the inhibition at 25 µM on recombinant human PAI-1 [1] worked out at 91%. At recombinant rat PAI-1, the inhibition at 0.3 µM worked out at 0%, the inhibition at 1 µM is 14%, the inhibition at 3 µM came to 84% and the inhibition at 10 µM was over 99%. For the same compound, at recombinant human PAI-1 [2], the inhibition at 0.1 µM was 0%, the inhibition at 0.3 µM is 0%, the inhibition at 1 µM came to 33% and the inhibition at 3 µM was determined as 97%.
In the case of `CCN(CC)c1ccc(N(Cc2ccc(C(C)(C)C)cc2)C(=O)C(=O)O)cc1-c1ccc(OC(F)(F)F)cc1` [Compound 213], at recombinant human PAI-1 [1] (setting [5]), the inhibition at 5 µM is 93% and the inhibition at 10 µM was 84%. Also, at recombinant rat PAI-1, the inhibition at 0.3 µM worked out at 8%, the inhibition at 1 µM came to 26%, the inhibition at 3 µM turned out to be 90% and the inhibition at 10 µM turned out to be 78%. On recombinant human PAI-1 [2], the inhibition at 0.1 µM came to 0%, the inhibition at 0.3 µM was 10%, the inhibition at 1 µM was 48% and the inhibition at 3 µM was 98%.
In the case of `CCC(CC)Oc1ccc(N(CCCc2ccccc2)C(=O)C(=O)O)cc1-c1ccc(OC(F)(F)F)cc1` [Compound 230], on recombinant human PAI-1 [1] (setting [3]), the inhibition at 5 µM was found to be 75%. In addition, the inhibition at 10 µM at recombinant human PAI-1 [1] (setting [4]) is 95%. Also, the inhibition at 25 µM at recombinant human PAI-1 [1] was 92%. In addition, on recombinant rat PAI-1, the inhibition at 0.3 µM was 0%, the inhibition at 1 µM was 13%, the inhibition at 3 µM turned out to be 83% and the inhibition at 10 µM was 94%. Further, at recombinant human PAI-1 [2], the inhibition at 0.1 µM came to 0%, the inhibition at 0.3 µM is 8%, the inhibition at 1 µM turned out to be 27% and the inhibition at 3 µM was 96%.
Turning to `CC(C)(C)c1ccc(CN(C(=O)C(=O)O)c2ccc(OCc3ccccc3)c(-c3ccc(OC(F)(F)F)cc3)c2)cc1` [Compound 212], on recombinant human PAI-1 [1] (setting [5]), the inhibition at 5 µM was 78% and the inhibition at 10 µM was found to be 95%. Further, on recombinant rat PAI-1, the inhibition at 0.3 µM was determined as 8%, the inhibition at 1 µM was 40%, the inhibition at 3 µM is 73% and the inhibition at 10 µM is 67%. At recombinant human PAI-1 [2], the inhibition at 0.1 µM was found to be 5%, the inhibition at 0.3 µM amounted to 15%, the inhibition at 1 µM was 64% and the inhibition at 3 µM turned out to be 98%.
`CC(C)(C)c1ccc(COc2ccc(-c3ccc(OC(F)(F)F)cc3)cc2CC(=O)O)cc1` [Compound 9]: at recombinant human PAI-1 [1] (read-out: Inhibition Rate of PAI Activity (%), Compound Concentration 5µM), the inhibition at 5 µM turned out to be 90%. For the same compound, on recombinant human PAI-1 [1] (read-out: Inhibition Rate of PAI Activity (%), Compound Concentration 10µM), the inhibition at 10 µM amounted to 99%. For the same compound, at recombinant rat PAI-1, the inhibition at 0.3 µM was determined as 0%, the inhibition at 1 µM was 15%, the inhibition at 3 µM is 71% and the inhibition at 10 µM was 96%. In addition, on recombinant human PAI-1 [2], the inhibition at 0.1 µM came out at 0%, the inhibition at 0.3 µM stood at 6%, the inhibition at 1 µM turned out to be 25% and the inhibition at 3 µM was determined as 98%.
For the compound `CC(C)(C)c1ccc(COc2ccc(-c3ccc(OC(F)(F)F)cc3)cc2N(Cc2ccccc2)C(=O)C(=O)O)cc1` [Compound 179], at recombinant human PAI-1 [1] (setting [3]), the inhibition at 5 µM was 64%. Further, the inhibition at 10 µM on recombinant human PAI-1 [1] (setting [4]) is 91%. Besides, on recombinant rat PAI-1, the inhibition at 0.3 µM stood at 7%, the inhibition at 1 µM is 38%, the inhibition at 3 µM was over 99% and the inhibition at 10 µM was over 99%. On recombinant human PAI-1 [2], the inhibition at 0.1 µM came to 1%, the inhibition at 0.3 µM was found to be 19%, the inhibition at 1 µM worked out at 68% and the inhibition at 3 µM was over 99%.
